In patent US11639929B2, “Universal histidine-tag binding compounds and methods of use thereof as fluorescent probes and sensors” (YEDA RESEARCH AND DEVELOPMENT CO. LTD., priority 2014, dated 2023):

Columns and labels:
[1] = test system: E. coli expressing His-OmpC; assay: Decorating bacteria with oligonucleotides, fluorescence microscopy; type: cell-based; details: 500 nM with Ni(II)
Method: Transformed bacteria with the different OmpC constructs (OmpC or His-OmpC) were cultured to saturation in LB medium supplemented with 100 μg/ml of ampicillin at 30° C. 40 μl of the pre-cultured cells were then diluted into 4 ml of fresh LB medium supplemented with ampicillin and incubated until the OD600 reaches ˜0.6. Protein expression was then induced by the addition of 0.1% Rhamnose and 20 μM isopropyl-b-D-1-thiogalactopyranoside (IPTG) and cultures were allowed to grow at 30° C. for 18 h.
The bacterial cells (OmpC or His-OmpC) were collected by centrifugation at 6000 g for 4 min. The pellet was washed twice with PBS×1 buffer and resuspended in the same buffer to an OD600 of 0.3. To a 100 μl sample of the bacteria suspension, a preincubated sample of DNA (500 nM) and NiCl2 (2.5 μM) was added, and the cells were incubated at room temperature for 1 h. Then the bacterial sample were washed twice with PBS, resuspended in 100 μl PBS and placed on a glass-bottom dish (P35G-1.5-14-C; MatTek) precoated with poly-1-lysine (Sigma Aldrich) and left to adhere for 1 h. Finally, the wells were washed vigorously with PBS three times and imaged using an Olympus IX51 fluorescent microscope. The samples were imaged using 60× or 100× objective lenses. […]

His-CaM(Ca^+2) [2] = target: T1, His-CaM(Ca^+2) (Mus musculus, UniProt P0DP26); assay: Screening assay with small molecules and peptide inhibitors using the His-CaM(Ca+2)-1 complex; details: test substance 1.6 μM; decrease indicates binding to the CaM surface
T1 construct: purchased Israel Structural Proteomics Center (Weizmann Institute of Science)
Method: A mixture of compound 1 (200 nM), His-CaM (400 nM), and CaCl2 (0.3 mM) in PBS buffer (4.1 mM, pH=7.3) was dispensed into a 384-well microplate, and fluorescence emission spectra were recorded. Then various drugs (1.6 μM) and peptides (1.6 μM) were added and the fluorescence emission was again recorded. Fluorescence measurements were performed in triplicate and the emission intensities before the addition of each drug were normalized to 100% (FIG. 24).

His-Bcl-2 = target: T2, His-Bcl-2 (Homo sapiens, UniProt P10415); assay: Probing protein-protein interactions for Bcl-2 with the His-Bcl-2-5 complex; type: binding; details: complex 200 nM
T2 construct: purchased ProSpec-Tany TechnoGene Ltd. (Ness Ziona, Israel)
T2 sequence (P10415 whole entry): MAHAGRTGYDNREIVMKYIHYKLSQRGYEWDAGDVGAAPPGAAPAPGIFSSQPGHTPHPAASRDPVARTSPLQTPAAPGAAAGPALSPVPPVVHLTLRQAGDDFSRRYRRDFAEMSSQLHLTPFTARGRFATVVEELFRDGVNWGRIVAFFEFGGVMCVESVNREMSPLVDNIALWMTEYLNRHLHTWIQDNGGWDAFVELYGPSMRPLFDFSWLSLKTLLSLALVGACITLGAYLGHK
Method: Compounds 1-5 (50 μL, 10 μM) in phosphate buffer (4.1 mM, pH=7.3) were dispensed into a 384-well plate and fluorescence intensities were recorded with an excitation wavelength of 330 nm. His-Bcl-2 (final concentration, 200 nM) and Bax BH3 (final concentration, 1.6 μM) were subsequently added to each well and the fluorescence intensity values were recorded again. The emission values correspond to the maximal intensities recorded either at λem=530 nm or at λem=560 nm. Fluorescence was measured in triplicate. Data shown in FIG. 27 is the average of the triplicates and error bars represent standard deviation. Control experiments were performed in a similar manner (FIG. 28).
A mixture of compound 5 (200 nM) and His-Bcl-2 (200 nM) in PBS buffer (4.1 mM, pH=7.3) was dispensed into a 384-well microplate, and the fluorescence emission spectra were recorded. Various proteins (0.8 μM) and Bax BH3 peptide (0.8 μM) were added and the fluorescence emission was again recorded. Fluorescence measurements were performed in triplicate. The emission intensities before the addition of each protein were normalized to 100% (FIG. 27b).

His-CaM(Ca^+2) [3] = target: T1, His-CaM(Ca^+2); assay: Surface plasmon resonance on immobilized His-CaM with Ca2+; type: binding; details: SPR, Table 2, CaCl2 0.3 mM; read-out: Dissociation constant
Method: SPR experiments were performed to assess the dissociation constant between His-CaM and the compound 1 in the presence/absence of Ca^2+ ions and other ligands. His-CaM was diluted in 180 μL PBS buffer (4.1 mM, pH=7.3) and 20 μL sodium acetate (1 M, pH=3) to reach a final concentration of 20 μg/mL and then immobilized on a Biacore sensor chip CM5 through EDC/NHS chemistry. Flow cells were activated for 5 min by injecting 50 μL mixture of 50 mM NHS:200 mM EDC. Then 50 μL of His-CaM (20 μg/mL) was injected at a rate of 10 μL/min followed by injection of ethanolamine (1 M) to block the remaining surface-activated groups. Various analytes (Table 1) were injected in different concentrations, ranging from 0.1-2 μM for (20 μL/min, 80 μL injection with a delay of 180 s wash) (Table 1). Between consecutive analyte injections, the surface was regenerated with 2 mM NaOH (20 μL at 10 μL/min) followed by PBS buffer (60 μL at 10 μL/min). Non-derivatized dextran matrix flow cells served as reference cells. […] CaCl2 (0.3 mM) was pre-incubated with the analyte before injections. For the control compound C15 (entry 5), prior to each injection, the chip was washed with 20 μL EDTA (50 mM, 20 μL/min) followed by PBS buffer (20 μL at 20 μL/min) to remove any traces of Ni^2+. The data were globally fitted using BiaEvaluation software 3.2.

| Compound | emission signal of the His-Bcl-2-5 complex after addition of protein or peptide (His-Bcl-2) | Kd (His-CaM(Ca^+2) [3]) [nM] | fluorescent labeling of bacteria, fluorescence imaging [1] | fluorescence emission of the His-CaM(Ca+2)-1 complex after addition of drug or peptide (His-CaM(Ca^+2) [2]) |
| --- | --- | --- | --- | --- |
| Cy5-labeled ODN: Cy5-labeled ODN lacking a tri-NTA group, negative control (DNA GCGGCGAGGCAGC; Cy5 label, position not given here) |  |  | No fluorescence |  |
| Clc1ccc(C(c2ccc(Cl)cc2)n2cc[n+](CC(OCc3ccc(Cl)cc3Cl)c3ccc(Cl)cc3Cl)c2)cc1 (stereo not shown) [calmidazolium] |  |  |  | decrease in the fluorescence emission |
| Mastoparan | did not change the emission signal |  |  | decrease in the fluorescence emission |

Continued, in another order:

| emission signal of the His-Bcl-2-5 complex after addition of protein or peptide (His-Bcl-2) | Kd (His-CaM(Ca^+2) [3]) [nM] | Compound | fluorescent labeling of bacteria, fluorescence imaging [1] | fluorescence emission of the His-CaM(Ca+2)-1 complex after addition of drug or peptide (His-CaM(Ca^+2) [2]) |
| --- | --- | --- | --- | --- |
| did not change the emission signal | 8.8 | CC[C@H](C)[C@H](NC(=O)[C@H](Cc1ccccc1)NC(=O)[C@H](CC(N)=O)NC(=O)[C@H](CCCCN)NC(=O)[C@H](CCCCN)NC(=O)[C@H](Cc1c[nH]c2ccccc12)NC(=O)[C@H](CCCNC(=N)N)NC(=O)[C@H](CCCNC(=N)N)NC(=O)[C@@H](N)CCCCN)C(=O)N[C@@H](C)C(=O)N[C@H](C(=O)N[C@@H](CO)C(=O)N[C@@H](C)C(=O)N[C@@H](C)C(=O)N[C@@H](CC(N)=O)C(=O)N[C@@H](CCCNC(=N)N)C(=O)N[C@@H](Cc1ccccc1)C(=O)N[C@@H](CCCCN)C(=O)N[C@@H](CCCCN)C(=O)N[C@H](C(=O)N[C@@H](CO)C(=O)N[C@@H](CO)C(=O)N[C@@H](CO)C(=O)NCC(=O)N[C@@H](C)C(=O)N[C@@H](CC(C)C)C(=O)O)[C@@H](C)CC)C(C)C [Compound M13] |  |  |
| decreased |  | Bax-BH3: amphipathic alpha helical peptide of Bax, Bax BH3 peptide (55-74) wild type (STKKLSECLKRIGDELDSNM) |  |  |
